Assay results taken from US20230111310A1, “CARBOXYLIC ACID DERIVATIVE-SUBSTITUTED IMINO ARYL COMPOUND, PREPARATION METHOD THEREFOR, HERBICIDAL COMPOSITION AND USE THEREOF” (Qingdao Kingagroot Chemical Compound Co., Ltd., priority 2020, published 2023).

Experiments:
Test in all cases: Weeding effect in post-emergence stage
Type in all cases: in vivo
Settings in all cases: fresh weight control rate level
Abutilon theophrasti = tested on: Abutilon theophrasti
How it was run: (§1)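 Read-out is growth control rate, counted 3 weeks post-spray and averaged over three repeats. Greenhouse plants at the 2-3 leaf stage received spray-tower application at 500, 250, 125, 60, 30, 15 or 7.5 g/ha, with methyl oleate EC (1.5 liter/ha) and Tween 80 added.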

Setaria viridis = tested on: Setaria viridis
How it was run: as §1

Digitaria sanguinalis = tested on: Digitaria sanguinalis
How it was run: as §1

Eleusine indica = tested on: Eleusine indica
How it was run: as §1

Alopecurus japonicus = tested on: Alopecurus japonicus
How it was run: as §1

Echinochloa crusgalli = tested on: Echinochloa crusgalli
How it was run: as §1

SMILES | Weeding effect in post-emergence stage, Abutilon theophrasti (level) (Abutilon theophrasti; Dose 15 g/ha) | Weeding effect in post-emergence stage, Setaria viridis (level) (Setaria viridis; Dose 15 g/ha) | Weeding effect in post-emergence stage, Digitaria sanguinalis (level) (Digitaria sanguinalis; Dose 15 g/ha) | Weeding effect in post-emergence stage, Eleusine indica (level) (Eleusine indica; Dose 15 g/ha) | Weeding effect in post-emergence stage, Alopecurus japonicus (level) (Alopecurus japonicus; Dose 15 g/ha) | Weeding effect in post-emergence stage, Echinochloa crusgalli (level) (Echinochloa crusgalli; Dose 15 g/ha) | Weeding effect in post-emergence stage, Abutilon theophrasti (level) (Abutilon theophrasti; Dose 30 g/ha) | Weeding effect in post-emergence stage, Setaria viridis (level) (Setaria viridis; Dose 30 g/ha) | Weeding effect in post-emergence stage, Digitaria sanguinalis (level) (Digitaria sanguinalis; Dose 30 g/ha) | Weeding effect in post-emergence stage, Eleusine indica (level) (Eleusine indica; Dose 30 g/ha) | Weeding effect in post-emergence stage, Alopecurus japonicus (level) (Alopecurus japonicus; Dose 30 g/ha) | Weeding effect in post-emergence stage, Echinochloa crusgalli (level) (Echinochloa crusgalli; Dose 30 g/ha) | other results
C/C(=N\OC(=O)[C@@H](C)O/N=C/c1cc(-n2c(=O)cc(C(F)(F)F)n(C)c2=O)c(F)cc1Cl)C1CC1 [450(R)] | 5 (Level 5: growth control rate is above 85%) | 5 (Level 5: growth control rate is above 85%) | 5 (Level 5: growth control rate is above 85%) | 5 (Level 5: growth control rate is above 85%) | 5 (Level 5: growth control rate is above 85%) | 5 (Level 5: growth control rate is above 85%) |  |  |  |  |  |  | 
C/C(=N/C(=O)[C@@H](C)O/N=C/c1cc(-n2c(=O)cc(C(F)(F)F)n(C)c2=O)c(F)cc1Cl)c1ccccc1 [453(R)] |  |  |  |  |  |  | 5 (Level 5: growth control rate is above 85%) | 5 (Level 5: growth control rate is above 85%) | 5 (Level 5: growth control rate is above 85%) | 5 (Level 5: growth control rate is above 85%) | 5 (Level 5: growth control rate is above 85%) | 5 (Level 5: growth control rate is above 85%) | 
C[C@@H](O/N=C/c1cc(-n2c(=O)cc(C(F)(F)F)n(C)c2=O)c(F)cc1Cl)C(=O)N1CCOCC1 [454(R)] |  |  |  |  |  |  |  |  |  |  |  |  | Weeding effect in post-emergence stage, Abutilon theophrasti (level) (Abutilon theophrasti; Dose 60 g/ha): 5 (Level 5: growth control rate is above 85%); Weeding effect in post-emergence stage, Setaria viridis (level) (Setaria viridis; Dose 60 g/ha): 5 (Level 5: growth control rate is above 85%); Weeding effect in post-emergence stage, Digitaria sanguinalis (level) (Digitaria sanguinalis; Dose 60 g/ha): 5 (Level 5: growth control rate is above 85%); Weeding effect in post-emergence stage, Eleusine indica (level) (Eleusine indica; Dose 60 g/ha): 5 (Level 5: growth control rate is above 85%); Weeding effect in post-emergence stage, Alopecurus japonicus (level) (Alopecurus japonicus; Dose 60 g/ha): 5 (Level 5: growth control rate is above 85%); Weeding effect in post-emergence stage, Echinochloa crusgalli (level) (Echinochloa crusgalli; Dose 60 g/ha): 5 (Level 5: growth control rate is above 85%)
COC(=O)[C@@H](CC(C)C)O/N=C/c1cc(-n2c(=O)cc(C(F)(F)F)n(C)c2=O)c(F)cc1Cl [455(R)] | 5 (Level 5: growth control rate is above 85%) | 5 (Level 5: growth control rate is above 85%) | 5 (Level 5: growth control rate is above 85%) | 5 (Level 5: growth control rate is above 85%) | 5 (Level 5: growth control rate is above 85%) | 5 (Level 5: growth control rate is above 85%) |  |  |  |  |  |  | 
COC(=O)[C@H](O/N=C/c1cc(-n2c(=O)cc(C(F)(F)F)n(C)c2=O)c(F)cc1Cl)C1CC1 [456(R)] |  |  |  |  |  |  | 5 (Level 5: growth control rate is above 85%) | 5 (Level 5: growth control rate is above 85%) | 5 (Level 5: growth control rate is above 85%) | 5 (Level 5: growth control rate is above 85%) | 5 (Level 5: growth control rate is above 85%) | 5 (Level 5: growth control rate is above 85%) | 
COC(=O)[C@@H](CC1CC1)O/N=C/c1cc(-n2c(=O)cc(C(F)(F)F)n(C)c2=O)c(F)cc1Cl [462(R)] | 5 (Level 5: growth control rate is above 85%) | 5 (Level 5: growth control rate is above 85%) | 5 (Level 5: growth control rate is above 85%) | 5 (Level 5: growth control rate is above 85%) | 5 (Level 5: growth control rate is above 85%) | 5 (Level 5: growth control rate is above 85%) |  |  |  |  |  |  | 
COC(=O)[C@H](CF)O/N=C/c1cc(-n2c(=O)cc(C(F)(F)F)n(C)c2=O)c(F)cc1Cl [463(R)] | 5 (Level 5: growth control rate is above 85%) | 5 (Level 5: growth control rate is above 85%) | 5 (Level 5: growth control rate is above 85%) | 5 (Level 5: growth control rate is above 85%) | 5 (Level 5: growth control rate is above 85%) | 5 (Level 5: growth control rate is above 85%) |  |  |  |  |  |  | 
COC(=O)[C@@H](C)O/N=C/c1cc(-n2c(=O)c(C)c(C(F)(F)F)n(C)c2=O)c(F)cc1Cl [473(R)] |  |  |  |  |  |  | 5 (Level 5: growth control rate is above 85%) | 5 (Level 5: growth control rate is above 85%) | 5 (Level 5: growth control rate is above 85%) | 5 (Level 5: growth control rate is above 85%) | 5 (Level 5: growth control rate is above 85%) | 5 (Level 5: growth control rate is above 85%) | 
C[C@@H](O/N=C/c1cc(-n2c(=O)cc(C(F)(F)F)n(C)c2=O)c(F)cc1Cl)C(=O)OCc1ccc(Cl)nc1 [495(R)] | 5 (Level 5: growth control rate is above 85%) | 5 (Level 5: growth control rate is above 85%) | 5 (Level 5: growth control rate is above 85%) | 5 (Level 5: growth control rate is above 85%) | 5 (Level 5: growth control rate is above 85%) | 5 (Level 5: growth control rate is above 85%) |  |  |  |  |  |  | 
C[C@@H](O/N=C/c1cc(-n2c(=O)cc(C(F)(F)F)n(C)c2=O)c(F)cc1Cl)C(=O)OCCC1OCCO1 [498(R)] | 5 (Level 5: growth control rate is above 85%) | 5 (Level 5: growth control rate is above 85%) | 5 (Level 5: growth control rate is above 85%) | 5 (Level 5: growth control rate is above 85%) | 5 (Level 5: growth control rate is above 85%) | 5 (Level 5: growth control rate is above 85%) |  |  |  |  |  |  | 
